# Key:
# TC138 cells = test: Cell proliferation (CellTiter-Glo), TC138; type: cell-based; conditions: TP53 wild-type, 3 days
# Method: (§1) Cells were plated in 384-well culture-treated plates and allowed to settle overnight. After drug treatment and appropriate incubation time, cell viability was assessed using the CellTiter-Glo Luminescent Cell Viability Assay (Promega). Luminescence was read on a Fluostar Omega Reader (BMG Labtech).
# MCF7 cells = test: Transcriptome profiling, 3' Digital Gene Expression RNA-seq; type: cell-based; conditions: 24 hours, low or high doses
# Source text: Overall, transcripts were detected for 7000-10,000 genes (7276 genes detected across all conditions).
# The same report had also identified a set of dimerization partner, Retinoblastoma-like, E2F and multi-vulval class B (DREAM) complex target genes by combining p53 repression data (generated in part with Nutlin-3A-treated MCF7 cells) with cell cycle expression and DREAM component binding.
# [1] = tested on: MDM2-p53 signaling axis in MCF7 cells; test: Whole cell lysate Western blots of MCF7 cells (MDM2-p53 signaling axis); type: cell-based; conditions: wild-type TP53
# [2] = tested on: 41 purified recombinant DUBs; test: In vitro DUB profiling, panel of 41 recombinant DUBs (Ub-Rho); type: biochemical; conditions: 1 μM, 15 minutes pre-incubation
# Method: Compounds were screened using the Ubiquigent Drug Profiler SPT system. Each of 41 purified DUBs was incubated with compound for 15 minutes, then ubiquitin rhodamine 110 (Ub-Rho) was added and percent inhibition determined based on fluorescence relative to a DMSO control.
# DUBs in HEK293AD lysate = DUBs in HEK293AD lysate (Homo sapiens, UniProt Q93009); test: In situ DUB profiling, competitive ABPP with Bio-Ub-PA/VME and quantitative MS; type: binding; conditions: HEK293 crude cell extract, 5 hours pre-incubation
# Method: DUB profiling was performed using conditions similar to those in Lawson, A. P. et al. Identification of deubiquitinase targets of isothiocyanates using SILAC-assisted quantitative mass spectrometry. Oncotarget 5, (2017). HEK 293AD cells were lysed using target engagement lysis buffer (50 mM Tris pH 8.0, 150 mM NaCl, 5 mM MgCl2, 0.5 mM EDTA, 0.5% NP-40, 10% glycerol, 1 mM TCEP, protease and phosphatase inhibitors), and the lysate was cleared by centrifugation. […] Excess inhibitor was removed using a 30K Amicon spin filter, then the resulting lysate was incubated with 1 μM each of Biotin-Ub-PA and Biotin-Ub-VME for 90 minutes at RT. SDS was added to a final concentration of 1.2%, and samples were heated to 80° C. for 5 minutes. After cooling to RT, 1×PBS was added to dilute the final SDS concentration to 0.2%. […]
# (§2) Streptavidin beads were resuspended in 95 μL 100 mM Tris pH 8.0. […] Eluted peptides were then analyzed by nanoLC-MS as described (Ficarro, S. B. et al. Improved electrospray ionization efficiency compensates for diminished chromatographic resolution and enables proteomics analysis of tyrosine signaling in embryonic stem cells. Anal. Chem. 81, 3440-3447 (2009)) with a NanoAcquity UPLC system (Waters, Milford, MA) interfaced to a QExactive HF mass spectrometer (Thermofisher Scientific, San Jose, CA). […]
# HEK293 proteome (USP7) = HEK293 proteome (USP7) (Homo sapiens (Human), UniProt Q93009); test: Compound 6-DTB proteome-wide profiling; type: binding; conditions: HEK293 cell lysates, 5 hours, 1 μM or 10 μM
# Chain of HEK293 proteome (USP7) (Q93009 whole entry): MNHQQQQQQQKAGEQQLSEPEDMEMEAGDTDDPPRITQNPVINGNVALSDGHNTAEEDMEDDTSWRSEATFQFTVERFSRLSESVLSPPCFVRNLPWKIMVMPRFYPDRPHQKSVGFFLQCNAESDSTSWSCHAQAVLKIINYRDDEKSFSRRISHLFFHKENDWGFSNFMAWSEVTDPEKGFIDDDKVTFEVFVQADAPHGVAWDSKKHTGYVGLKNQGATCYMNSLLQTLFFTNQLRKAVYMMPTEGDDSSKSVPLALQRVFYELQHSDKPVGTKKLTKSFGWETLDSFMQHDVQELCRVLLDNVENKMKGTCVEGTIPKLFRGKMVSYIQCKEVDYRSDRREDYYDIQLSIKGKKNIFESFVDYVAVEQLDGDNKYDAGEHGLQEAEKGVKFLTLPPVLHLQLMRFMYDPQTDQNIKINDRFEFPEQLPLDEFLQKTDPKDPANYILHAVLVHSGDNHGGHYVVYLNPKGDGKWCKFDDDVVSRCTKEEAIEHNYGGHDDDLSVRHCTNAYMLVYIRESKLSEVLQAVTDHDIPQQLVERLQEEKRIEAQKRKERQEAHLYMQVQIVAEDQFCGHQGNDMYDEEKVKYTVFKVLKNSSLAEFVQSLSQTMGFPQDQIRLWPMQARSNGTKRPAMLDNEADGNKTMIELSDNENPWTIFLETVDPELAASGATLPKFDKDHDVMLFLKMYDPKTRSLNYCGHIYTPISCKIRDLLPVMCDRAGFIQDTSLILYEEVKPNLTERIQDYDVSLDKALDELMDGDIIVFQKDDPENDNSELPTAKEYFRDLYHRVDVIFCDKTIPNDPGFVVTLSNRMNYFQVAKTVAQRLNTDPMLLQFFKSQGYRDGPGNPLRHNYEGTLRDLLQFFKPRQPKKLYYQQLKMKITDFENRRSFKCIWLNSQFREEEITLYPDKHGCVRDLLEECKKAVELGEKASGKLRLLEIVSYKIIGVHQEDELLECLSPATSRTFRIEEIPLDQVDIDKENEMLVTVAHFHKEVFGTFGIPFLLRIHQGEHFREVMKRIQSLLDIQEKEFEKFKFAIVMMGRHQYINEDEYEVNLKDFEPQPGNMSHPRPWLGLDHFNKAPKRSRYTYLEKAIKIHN
# Method: HEK 293AD cells were lysed as described above, and the lysate was cleared by centrifugation. […] SDS was added to a final concentration of 1.2% (27.2 μL of a 10% stock), and denatured by heating to 80° C. for 5 minutes. After cooling to RT, 1125 μL 1×PBS was added to dilute the final SDS concentration to 0.2%. 50 μL streptavidin agarose slurry was added to each sample, followed by incubation at RT for 3 hours. After streptavidin enrichment, samples were washed vigorously (2×0.2% SDS, 3×PBS, 3×ddH2O). After the final wash, all supernatant was removed using a flat-bottom tip, and the resin was flash frozen and stored at −80° C. until workup for TMT labeling.
# as §2, with “8.0. Each sample was denatured with 0.1% rapigest, reduced (10 mM dithiothreitol), alkylated (22.5 mM iodoacetamide), and digested with trypsin overnight at 37° C.” for “8.0.”
# TC32 cells = test: Cell proliferation (CellTiter-Glo), TC32; type: cell-based; conditions: TP53 wild-type, 3 days
# Method: as §1
smiles,measurement,setting,value
"CN1CCN(CCC(=O)Nc2ccc3c(=O)n(CC4(O)CCN(C(=O)[C@@H](CCCNC(=O)c5ccc6c(Cl)c7c(nc6c5)CCCC7)Cc5ccccc5)CC4)cnc3c2)CC1 [compound 6, (S)—N-(4-benzyl-5-(4-hydroxy-4-((7-(3-(4-methylpiperazin-1-yl)propanamido)-4-oxoquinazolin-3(4H)-yl)methyl)piperidin-1-yl)-5-oxopentyl)-9-chloro-5,6,7,8-tetrahydroacridine-3-carboxamide]",growth inhibition,TC138 cells,potently inhibited
same,transcriptional profile,MCF7 cells,strongly correlated transcriptional profiles
same,MDM2 protein level,[1],induced rapid degradation of MDM2 within 2 hours
same,p53 and p21 protein levels,[1],increases in p53 and downstream p21 protein levels
same,activity against other DUBs of the panel,[2],did not exhibit significant activity against any other DUBs
same,inhibition of USP7 enzymatic activity,[2],completely inhibited USP7 enzymatic activity
same,blocking of USP7 labeling by DUB ABPs,DUBs in HEK293AD lysate,significantly blocked USP7 labeling
same,inhibition of compound 6-DTB labeling of USP7 (only protein of 566),HEK293 proteome (USP7),> 3 fold
same,growth inhibition,TC32 cells,potently inhibited
